Holding throughout (format): cell-based
Experiment [1] deals with HIV-1 constructs containing mutant IN E138K-Q148K. In words: Single-round HIV-1 infectivity assay, IN double mutant E138K-Q148K. As to the method: Single-Round HIV-1 Infectivity Assay.
Human embryonyl kidney cell culture cell line 293 was acquired from the American type Culture Collection (ATCC).
[…]. […] The virus-containing supernatants were then harvested, clarified by low-speed centrifugation, filtrated, and diluted for preparation in infection assays. […] After compound incorporation and activation in the cell, 100 μL of virus-stock diluted to achieve a maximum luciferase signal between 0.2 and 1.5 RLUs was added to each well and further incubated at 37° C. for 48 hrs. […] Activity was normalized to infectivity in the absence of target compounds. KaleidaGraph (Synergy Software, Reading, Pa.) was used to perform regression analysis on the data. EC50 values were determined from the fit model.
pNLNgoMIVR^−ΔEnv.LUC has been described previously (Zhao et al. 2008). The integrase codon reading frame was removed from pNLNgoMIVR^−ΔEnv LUC (between KpnI and SalI sites) and placed between the KpnI and SalI sites of pBluescript II KS+. Using that construct as the wild-type template, we prepared the following HIV-1 Integrase-resistant mutants via the QuikChange II XL (Stratagene, La Jolla, Calif.) site-directed mutagenesis protocol: H51Y, T66I, E92Q, G118R, Y143R, Q148H, Q148K, N155H, R263K, G140S+Q148H, G140A+Q148K, E138K+Q148K, and H51Y+R263K. […]

For experiment [2], the system named is HIV-1 constructs containing mutant IN N155H. Briefly: microbe, parasite or virus in culture. In short, it runs like this:
(§1)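 Single-round infectivity assay using luciferase-reporter pNLNgoMIVR−ΔEnv.LUC virus carrying site-directed integrase mutants, produced in 293 cells. Activity normalized to infectivity without compound; EC50 from regression fit.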

Experiment [3] has as its system HIV-1 constructs containing mutant IN G140S-Q148H. In words: microbe, parasite or virus in culture. The method in brief:
as §1

Experiment [4] has as its system HIV-1 constructs containing mutant IN Y143R. In words: microbe, parasite or virus in culture. The method in brief:
as §1

Each structure is given as a SMILES string.

On to `O=C(NCc1ccc(F)cc1F)c1c(O)c2cccnc2n(O)c1=O` [XZ351, N-(2,4-difluorobenzyl)-1,4-dihydroxy-2-oxo-1,2-dihydro-1,8-naphthyridine-3-carboxamide], for which the “Integrase Mutants KK (E138K-Q148K), fold-change in EC50 relative to WT” value in experiment [1] is reported as 32 x. The “Integrase Mutants N155H, fold-change in EC50 relative to WT” value in experiment [2] came out at 5 x. In addition, the EC50 – broadly, the midpoint of the concentration-response curve – turned out to be 30.5 ± 7.76 nM in experiment [2] (Human immunodeficiency virus 1, Table 3, read-out: EC50 (nM, IN Mutants) N155H); 308 ± 125 nM in experiment [3] (Human immunodeficiency virus 1, Table 3, G140S-Q148H double mutant, read-out: EC50 (nM, IN Mutants) SH); 11.3 ± 1.93 nM in experiment [4] (Human immunodeficiency virus 1, Table 3, read-out: EC50 (nM, IN Mutants) Y143R). For the same molecule, in experiment [3], the “Integrase Mutants SH (G140S-Q148H), fold-change in EC50 relative to WT” value was 50 x. Besides, the “Integrase Mutants Y143R, fold-change in EC50 relative to WT” value in experiment [4] is 2 x.

(Values after patent US9676771B2, “Compounds for inhibiting drug-resistant strains of HIV-1 integrase” (priority 2013, dated 2017).)
